Results taken from US8916565B2, “Pyrrolopyrazine-spirocyclic piperidine amides as modulators of ion channels” (priority 2011, dated 2014).

What follows are compounds tested against human NaV subtype, like NaV 1.7 (Homo sapiens, UniProt Q15858) (assay: E-VIPR optical membrane potential assay with electrical stimulation). Conditions: active against one or more sodium channels; Table 3 does not name the assay or NaV subtype; read-out: Binned Activity Data (IC50).
Type: cell-based

human NaV subtype, like NaV 1.7, sequence (Q15858 whole entry): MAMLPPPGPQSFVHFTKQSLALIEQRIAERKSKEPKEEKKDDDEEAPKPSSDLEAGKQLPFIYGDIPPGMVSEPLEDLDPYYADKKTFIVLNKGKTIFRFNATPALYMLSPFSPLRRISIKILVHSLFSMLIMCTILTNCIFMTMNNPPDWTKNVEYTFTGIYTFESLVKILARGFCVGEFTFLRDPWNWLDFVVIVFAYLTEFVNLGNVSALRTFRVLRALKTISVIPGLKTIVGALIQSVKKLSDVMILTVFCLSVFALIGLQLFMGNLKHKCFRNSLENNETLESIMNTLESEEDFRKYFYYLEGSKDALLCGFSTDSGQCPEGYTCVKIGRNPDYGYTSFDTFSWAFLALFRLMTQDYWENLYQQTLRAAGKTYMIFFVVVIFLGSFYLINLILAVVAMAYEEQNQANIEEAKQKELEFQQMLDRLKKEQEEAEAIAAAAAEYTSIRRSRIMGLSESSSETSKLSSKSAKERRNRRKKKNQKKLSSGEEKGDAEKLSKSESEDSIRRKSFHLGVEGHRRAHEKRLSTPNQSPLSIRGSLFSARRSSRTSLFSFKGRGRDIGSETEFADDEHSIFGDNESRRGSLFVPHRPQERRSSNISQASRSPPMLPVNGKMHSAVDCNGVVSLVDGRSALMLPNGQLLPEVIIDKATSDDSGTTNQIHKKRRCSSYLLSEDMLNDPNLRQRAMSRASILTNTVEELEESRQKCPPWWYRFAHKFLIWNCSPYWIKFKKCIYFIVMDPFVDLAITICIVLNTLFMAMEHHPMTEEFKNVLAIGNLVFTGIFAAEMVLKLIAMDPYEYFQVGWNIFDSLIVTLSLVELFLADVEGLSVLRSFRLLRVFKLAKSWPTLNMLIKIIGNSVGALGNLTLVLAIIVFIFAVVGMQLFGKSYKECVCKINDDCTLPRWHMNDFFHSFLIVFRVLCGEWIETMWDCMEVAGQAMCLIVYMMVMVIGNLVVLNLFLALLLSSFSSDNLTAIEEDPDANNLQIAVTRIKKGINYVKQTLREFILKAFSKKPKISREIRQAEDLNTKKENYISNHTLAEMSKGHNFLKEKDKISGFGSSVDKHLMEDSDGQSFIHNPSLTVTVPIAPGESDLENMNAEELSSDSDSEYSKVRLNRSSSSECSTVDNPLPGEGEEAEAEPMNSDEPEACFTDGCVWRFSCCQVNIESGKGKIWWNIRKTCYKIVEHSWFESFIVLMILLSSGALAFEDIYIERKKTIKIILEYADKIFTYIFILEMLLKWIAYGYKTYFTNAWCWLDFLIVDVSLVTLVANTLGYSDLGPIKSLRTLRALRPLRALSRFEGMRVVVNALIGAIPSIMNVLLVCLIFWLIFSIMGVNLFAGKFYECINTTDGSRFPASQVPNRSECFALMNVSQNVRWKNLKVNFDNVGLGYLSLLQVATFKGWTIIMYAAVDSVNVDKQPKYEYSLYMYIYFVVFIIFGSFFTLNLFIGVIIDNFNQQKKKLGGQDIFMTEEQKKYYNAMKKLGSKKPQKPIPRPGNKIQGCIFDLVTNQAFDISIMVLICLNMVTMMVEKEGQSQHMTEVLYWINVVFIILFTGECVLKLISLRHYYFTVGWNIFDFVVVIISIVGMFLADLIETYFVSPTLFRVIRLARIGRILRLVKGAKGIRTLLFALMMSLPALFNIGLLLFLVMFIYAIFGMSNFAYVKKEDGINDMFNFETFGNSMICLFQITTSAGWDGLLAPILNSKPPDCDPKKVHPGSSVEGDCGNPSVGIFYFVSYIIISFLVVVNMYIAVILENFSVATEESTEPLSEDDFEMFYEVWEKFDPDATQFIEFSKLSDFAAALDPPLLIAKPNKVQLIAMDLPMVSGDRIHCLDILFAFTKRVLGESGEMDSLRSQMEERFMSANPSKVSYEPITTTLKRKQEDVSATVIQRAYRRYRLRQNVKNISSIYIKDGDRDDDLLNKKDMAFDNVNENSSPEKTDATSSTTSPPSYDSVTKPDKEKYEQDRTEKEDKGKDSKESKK

| IC50 [µM] | Structure (SMILES) |
| --- | --- |
| ≤ 2 | COc1cc(C(=O)N2CCC3(CC2)c2ccc(Cl)n2CCN3C)ccc1OCCOC(F)(F)F [Compound 650] |
| ≤ 2 | CC(C)C(O)c1ccc(C(=O)N2CCC3(CC2)c2c(F)cc(C(F)(F)F)n2CCN3C)cc1 (centres unmarked) [Compound 395] |
| ≤ 2 | CN1CCn2c(C(=O)C3(C)CC3)ccc2C12CCN(C(=O)c1ccc(COCCC(F)(F)F)cc1)CC2 [Compound 585] |
| ≤ 2 | CC1(C)Cn2c(C(=O)C(F)(F)F)ccc2C2(CCN(C(=O)c3ccc(S(=O)(=O)C(F)(F)F)cc3)CC2)N1 [Compound 396] |
| ≤ 2 | CNS(=O)(=O)c1ccc(C(=O)N2CCC3(CC2)c2ccc(C(=O)C(C)(C)C)n2CCN3C)cc1C [Compound 561] |
| > 5 | CC(C)(O)c1ccc(C(=O)N2CCC3(CC2)c2ccc(C(F)(F)F)n2CCN3C2CC2)cc1 [Compound 451] |
| ≤ 2 | Cc1cc(C(=O)N2CCC3(CC2)c2ccc(CC(F)(F)F)n2CCN3C)ccc1C(C)(C)O [Compound 593] |
| 2 to 5 | Cc1cc(C(=O)N2CCC3(CC2)c2ccc(C#N)n2CCN3C)ccc1OC(C)C [Compound 394] |
| ≤ 2 | COc1cc(C(=O)N2CCC3(CC2)c2c(F)cc(C(F)(F)F)n2CCN3C)ccc1C1(O)CCC1 [Compound 410] |
| ≤ 2 | CCCCCc1ccc(C(=O)N2CCC3(CC2)c2ccc(C(=O)C(F)(F)F)n2CCN3C)cc1 [Compound 62] |
| ≤ 2 | COc1ccc(C(=O)N2CCC3(CC2)NCC(C)n2c(C(=O)C(F)(F)F)ccc23)cc1C(F)(F)F (centres unmarked) [Compound 173] |
| > 5 | COCCOc1ccc(C(=O)N2CCC3(CC2)c2ccc(C(=O)C(F)(F)F)n2CCN3C)cc1 [Compound 434] |
| ≤ 2 | CC(C)COc1ccc(C(=O)N2CCC3(CC2)c2ccc(C(=O)C(F)(F)F)n2CCN3C)cc1 [Compound 501] |
| ≤ 2 | COc1ccc(C(=O)N2CCC3(CC2)c2ccc(C(=O)C4CC4)n2CCN3C)cc1C [Compound 521] |
| ≤ 2 | CCN(C)c1cc(C)nc2c(C(=O)N3CCC4(CC3)c3ccc(C(F)(F)F)n3CCN4C)cnn12 [Compound 660] |
| ≤ 2 | COc1cc(C(=O)N2CCC3(CC2)c2ccc(C(F)(F)F)n2CCN3CC2CC2)ccc1OC(C)C [Compound 574] |
| ≤ 2 | Cc1cc(-c2ccc(C(=O)N3CCC4(CC3)c3ccc(C(=O)C(F)(F)F)n3CCN4C)cc2C)ccn1 [Compound 169] |
| ≤ 2 | CCOc1ccc(C(=O)N2CCC3(CC2)NC(C)(C)Cn2c(C(=O)C(F)(F)F)ccc23)cc1Cl [Compound 636] |
| > 5 | CC(C)Oc1ccc(C(=O)N2CCC3(CC2)c2cc(C(=O)C(F)(F)F)cn2C(C)(C)CN3C)cc1Cl [Compound 588] |
| ≤ 2 | COc1ccc(C(=O)N2CCC3(CC2)c2ccc(C(=O)C4(C)CC4)n2CCN3C)nc1C [Compound 448] |
| ≤ 2 | Cc1cc(C(=O)N2CC[C@]3(c4ccc(C(F)(F)F)n4CCN3C)[C@H](F)C2)ccc1C(C)(C)O [Compound 350] |
| ≤ 2 | COc1cc(C(=O)N2CCC3(CC2)c2cc(C(F)(F)F)c(C(F)(F)F)n2CCN3C)ccc1OC(C)C [Compound 48] |
| ≤ 2 | Cc1cc(C(=O)N2CCC3(CC2)c2ccc(C(=O)C(F)(F)F)n2CCN3C)cc(C)c1O [Compound 238] |
| > 5 | CCCc1ccc(C(=O)N2CCC3(CC2)c2ccc(C(C)=O)n2CCN3C)cc1 [Compound 292] |
| ≤ 2 | Cc1cc(C(=O)N2CCC3(CC2)c2ccc(C(=O)C(F)(F)F)n2CCN3C)ccc1O [Compound 201] |
| ≤ 2 | Cc1cc(C(=O)N2CCC3(CC2)c2ccc(C(F)(F)F)n2CCN3C2CC2)ccc1OCC(C)(C)O [Compound 332] |
| ≤ 2 | CC(C)Oc1ccc(C(=O)N2CCC3(CC2)NC(C)(C)Cn2c(C(=O)C(F)(F)F)ccc23)cc1Cl [Compound 270] |

| IC50 [µM] | Structure (SMILES) |
| --- | --- |
| ≤ 2 | CC1(C)Cn2c(C(=O)C(F)(F)F)ccc2C2(CCN(C(=O)c3ccc(O)c(C(F)(F)F)c3)CC2)N1 [Compound 567] |
| ≤ 2 | CN1CCn2c(ccc2C(F)(F)C(F)(F)F)C12CCN(C(=O)c1ccc(C3(O)CCCC3)cc1)CC2 [Compound 587] |
| ≤ 2 | COc1cc(C(=O)N2CCC3(CC2)NC(C)(C)Cn2c(C(=O)C(F)(F)F)ccc23)ccc1OCCC(C)C [Compound 686] |
| > 5 | Cc1c(O)cccc1C(=O)N1CCC2(CC1)c1ccc(C(=O)C(F)(F)F)n1CCN2C [Compound 714] |
| ≤ 2 | CC(C)Oc1ccc(C(=O)N2CCC3(CC2)c2c(C#N)cc(C(F)(F)F)n2CCN3C)cc1Cl [Compound 548] |
| ≤ 2 | CN1CCn2c(C(=O)C(C)(C)C)ccc2C12CCN(C(=O)c1ccc(C(C)(C)O)c(F)c1)CC2 [Compound 251] |
| ≤ 2 | COc1cc(C(=O)N2CCC3(CC2)NC(C)(C)Cn2c(C(F)(F)F)ccc23)ccc1OC(C)C [Compound 551] |
| ≤ 2 | C[C@H]1Cn2c(C(=O)C(F)(F)F)ccc2C2(CCN(C(=O)c3ccc(S(=O)(=O)C(F)(F)F)cc3)CC2)N1C [Compound 649] |
| ≤ 2 | Cc1cc(C(=O)N2CCC3(CC2)c2ccc(C(F)(F)F)n2CCN3C)ccc1C(C)(C)O [Compound 98] |
| > 5 | CC1CCN(S(=O)(=O)c2ccc(C(=O)N3CCC4(CC3)c3ccc(Cl)n3CCN4C)cc2)CC1 [Compound 310] |
| ≤ 2 | CCCCCc1ccc(C(=O)N2CCC3(CC2)c2ccc(Cl)n2CCN3C)cc1 [Compound 20] |
| 2 to 5 | CCOC(=O)N1CCn2c(C#N)ccc2C12CCN(C(=O)c1ccc(OC(C)C)c(C)c1)CC2 [Compound 210] |
| ≤ 2 | CC1(C)Cn2c(C(=O)C(F)(F)F)ccc2C2(CCN(C(=O)c3ccc(S(=O)(=O)NC4CC4)cc3)CC2)N1 [Compound 442] |
| ≤ 2 | CN1CCn2c(C(=O)C3CC3)ccc2C12CCN(C(=O)c1ccc(C3CCCCC3)cc1)CC2 [Compound 66] |
| ≤ 2 | Cc1cc(C(=O)N2CCC3(CC2)c2ccc(C(=O)C(F)(F)F)n2CCN3C)ccc1C(F)(F)F [Compound 471] |
| ≤ 2 | Cc1cc(C(=O)N2CCC3(CC2)c2ccc(C(=O)C(C)(C)C)n2CCN3C)ccc1OC(C)C [Compound 199] |
| 2 to 5 | CC[C@H](C)Oc1ccc(C(=O)N2CCC3(CC2)c2ccc(C(C)=O)n2CCN3C)cc1OC [Compound 609] |
| ≤ 2 | CC(=O)c1ccc2n1CCN(C)C21CCN(C(=O)c2ccc(CC(C)C)cc2)CC1 [Compound 5] |
| ≤ 2 | COc1cc(C(=O)N2CCC3(CC2)c2ccc(C(F)(F)F)n2CCN3CC(F)(F)F)ccc1OC(C)C [Compound 59] |
| > 5 | CC(=O)c1ccc2n1CCN(C)C21CCN(C(=O)c2ccc(S(=O)(=O)C(C)C)c(C)c2)CC1 [Compound 246] |
| 2 to 5 | CC(=O)c1ccc2n1CCN(C)C21CCN(C(=O)c2ccc(Cc3ccccc3)cc2)CC1 [Compound 260] |
| ≤ 2 | CC(=O)c1ccc2n1CCN(C)C21CCN(C(=O)c2ccc(OC(C)C)c(C)c2)CC1 [Compound 122] |
| 2 to 5 | CC(C)CNc1ncccc1C(=O)N1CCC2(CC1)c1ccc(C(F)(F)F)n1CCN2C [Compound 44] |
| > 5 | COc1cc(C(=O)N2CC[C@]3(C[C@H]2C)c2ccc(C(F)(F)F)n2CCN3C)ccc1OC(C)C [Compound 328] |
| ≤ 2 | CC(C)Oc1ccc(C(=O)N2CCC3(CC2)c2ccc(CC(F)(F)F)n2CCN3C)cc1Cl [Compound 11] |
| > 5 | CCC(C)(C)c1ccc(C(=O)N2CCC3(CC2)c2ccc(C(C)=O)n2CCN3C)cc1 [Compound 67] |
